In patent US20110305784A1, “Fractionated products obtained from gamboge resin, and medical uses of the same” (priority 2010, published 2011):
Converted amounts (≈) assume the structure as drawn. Marks after values point to notes of the source that are not given here.

Legend:
in vitro = conditions: human
Source text: (§1) The in vitro anti-cancer test was primarily used to detect the effect of a candidate drug on cancer cell proliferation. The working principle involved therein is the ability of viable cells to shift alamarBlue (AbD Serotec, UK) from its originally non-fluorescent oxidized state (non-fluorescent, blue) to a reduced form (fluorescent, red) having fluorescence via metabolic reaction. According to the fluorescent data result generated by the alamarBlue reagent thus obtained, the proliferation of the viable cells and cell activity can be quantified for detection.
(§2) In the in vitro anti-cancer tests, a candidate drug was tested at 5 different concentrations of 0.01, 0.1, 1, 10, and 100 μg/ml, and six human cancer cell lines and a normal human cell line were used (see Table 10).

[1] = system: Human breast adenocarcinoma cell MCF7; assay: cells; conditions: for IC50: MCF7, read-out: IC50 (50% inhibition concentration); for CC50: MCF7, read-out: LC50 (50% lethal concentration)
Source text: as §1, §2

[2] = system: Human colon adenocarcinoma cell HT-29; assay: cells; conditions: for IC50: HT-29, read-out: IC50 (50% inhibition concentration); for CC50: HT-29, read-out: LC50 (50% lethal concentration)
Source text: as §1, §2

[3] = system: Human hepatocellular carcinoma cell HepG2; assay: cells; conditions: for IC50: HepG2, read-out: IC50 (50% inhibition concentration); for CC50: HepG2, read-out: LC50 (50% lethal concentration)
Source text: as §1, §2

[4] = system: Human histocytic lymphoma cell U937; assay: cells; conditions: for IC50: U-937, read-out: IC50 (50% inhibition concentration); for CC50: U-937, read-out: LC50 (50% lethal concentration)
Source text: as §1, §2

[5] = system: Human lung carcinoma cell A549; assay: cells; conditions: for IC50: A549, read-out: IC50 (50% inhibition concentration); for CC50: A549, read-out: LC50 (50% lethal concentration)
Source text: as §1, §2

[6] = system: Human promyelocytic leukemia cell HL-60; assay: cells; conditions: for IC50: HL-60, read-out: IC50 (50% inhibition concentration); for CC50: HL-60, read-out: LC50 (50% lethal concentration)
Source text: as §1, §2

[7] = system: Human umbilical venal epithelial cell (HUVEC); assay: cells; conditions: Homo sapiens, HUVEC, read-out: IC50 (50% inhibition concentration)
Source text: as §1, §2

male CD-1 (Crl.) mice [8] = assay: In vivo analgesia test of formulation TSB-9-W (formalin, hind paw licking); conditions: morphine oral 30 mg/Kg
Description: The formulation TSB-9 was milled to obtain a formulation TSB-9-W having a particle size of around 10 μm, and an in vivo analgesia test of the formulation TSB-9-W was performed by the MDS Pharma Services.
Briefly, male CD-1 (Crl.) mice were randomly divided into three groups (n=5 for each group) including an experimental group (i.e., TSB-9-W group) and two control groups (i.e., a vehicle normal control group and a morphine positive control group). The mice in the TSB-9-W group were orally administered with the formulation TSB-9-W at a dose of 100 mg/Kg, the mice in the vehicle normal control group were orally administered with 2% Tween 80 at a dosing volume of 10 mL/Kg, and the mice in the morphine positive control group were orally administered with morphine at a dose of 30 mg/Kg. One hour later, 0.02 mL of a 2% formalin solution was subplantarly injected into the hind paws of mice in each group, and the hind paw licking times for each mouse were counted at the time intervals of 0-5 minutes and 15-30 minutes after formalin injection. Inhibition rate (%) of hind paw licking in each group of mice was calculated using the following Equation (1):
wherein A=inhibition rate of hind paw licking (%), • B=the average value of the hind paw licking times in the vehicle normal control group of mice, and • C=the average value of the hind paw licking times in each group of mice.

male CD-1 (Crl.) mice [9] = assay: In vivo analgesia test of the fractionated products TSB-14A to TSB-14E (formalin, hind paw licking); set-up: concentration or dose not given beside the values; conditions: morphine positive control, oral
[10] = 0-5 minutes after formalin injection

SMILES	CC50 (in vitro) [µg/mL]	IC50 [1] [µg/mL]	CC50 [1] [µg/mL]	IC50 [2] [µg/mL]	CC50 [2] [µg/mL]	IC50 [3] [µg/mL]	CC50 [3] [µg/mL]	IC50 [4] [µg/mL]	CC50 [4] [µg/mL]	IC50 [5] [µg/mL]	CC50 [5] [µg/mL]	IC50 [6] [µg/mL]	CC50 [6] [µg/mL]	IC50 [7] [µg/mL]	other results
CC(C)=CCC[C@]1(C)C=Cc2c(O)c3c(c(C(O)C4OC4(C)C)c2O1)O[C@]12C(=C[C@@H]4CC1C(C)(C)OC2(C/C=C(/C)C(=O)O)C4=O)C3=O (stereo partly shown) [Gh-3353, formoxanthone G]	8.4 (≈ 12.7 µM)	2.4 (≈ 3.63 µM)	9.6 (≈ 14.5 µM)	5 (≈ 7.57 µM)	20.8 (≈ 31.5 µM)	5.3 (≈ 8.02 µM)	35.5 (≈ 53.7 µM)	4.8 (≈ 7.26 µM)	14.6 (≈ 22.1 µM)	2.6 (≈ 3.93 µM)	8.2 (≈ 12.4 µM)	1.3 (≈ 1.97 µM)	2.4 (≈ 3.63 µM)	5.5 (≈ 8.32 µM)	
C=C(C)C(O)CC[C@]1(C)C=Cc2c(O)c3c(c(CC=C(C)C)c2O1)O[C@]12C(=C[C@@H]4CC1C(C)(C)OC2(C/C=C(/C)C(=O)O)C4=O)C3=O (stereo partly shown) [Gh-3291, formoxanthone D]	1.4 (≈ 2.17 µM)	0.45 (≈ 0.698 µM)	2.8 (≈ 4.34 µM)	0.081 (≈ 0.126 µM)	4.7 (≈ 7.29 µM)	0.65 (≈ 1.01 µM)	8.7 (≈ 13.5 µM)	0.22 (≈ 0.341 µM)	0.61 (≈ 0.946 µM)	0.62 (≈ 0.962 µM)	3.3 (≈ 5.12 µM)	4.5 (≈ 6.98 µM)	30 (≈ 46.5 µM)	0.34 (≈ 0.527 µM)	
CC(C)=CCc1c2c(c(O)c3c1O[C@]14C(=C[C@@H]5CC1C(C)(C)OC4(C/C=C(\C)C(=O)O)C5=O)C3=O)C=CC(C)(C/C=C\C(C)(C)O)O2 (stereo partly shown) [Gh-3332, isoformoxanthone I]	3.3 (≈ 5.12 µM)	0.87 (≈ 1.35 µM)	3.3 (≈ 5.12 µM)	0.85 (≈ 1.32 µM)	73.8 (≈ 114 µM)	6.7 (≈ 10.4 µM)	19.6 (≈ 30.4 µM)	0.23 (≈ 0.357 µM)	1.4 (≈ 2.17 µM)	1.3 (≈ 2.02 µM)	4.6 (≈ 7.13 µM)	11.8 (≈ 18.3 µM)	30.5 (≈ 47.3 µM)	0.11 (≈ 0.171 µM)	
CC(C)=CCc1c2c(c(O)c3c1O[C@]14C(=C[C@@H]5CC1C(C)(C)OC4(C/C=C(/C)C(=O)O)C5=O)C3=O)C=C[C@@](C)(C/C=C/C(C)(C)O)O2 [Gh-3272, formoxanthone H]	2.5 (≈ 3.88 µM)	0.73 (≈ 1.13 µM)	2.8 (≈ 4.34 µM)	0.36 (≈ 0.558 µM)	6.6 (≈ 10.2 µM)	1.2 (≈ 1.86 µM)	3.7 (≈ 5.74 µM)	0.16 (≈ 0.248 µM)	0.43 (≈ 0.667 µM)	1.7 (≈ 2.64 µM)	4.7 (≈ 7.29 µM)	1.7 (≈ 2.64 µM)	5.1 (≈ 7.91 µM)	0.12 (≈ 0.186 µM)	
CN1CC[C@]23c4c5ccc(O)c4O[C@H]2[C@@H](O)C=C[C@H]3[C@H]1C5 [Morphine, morphine]															Inhibition rate of hind paw licking (%) (male CD-1 (Crl.) mice [8]; [10]): 100* %; Inhibition rate of hind paw licking (%) (male CD-1 (Crl.) mice [8]; 15-30 minutes after formalin injection): 100* %; Inhibition rate of hind paw licking (%) (male CD-1 (Crl.) mice [9]; [10]): 62* %; Inhibition rate of hind paw licking (%) (male CD-1 (Crl.) mice [9]; 10-15 minutes after formalin injection): 89* %; Inhibition rate of hind paw licking (%) (male CD-1 (Crl.) mice [9]; 15-20 minutes after formalin injection): 81* %; Inhibition rate of hind paw licking (%) (male CD-1 (Crl.) mice [9]; 20-25 minutes after formalin injection): 68* %; Inhibition rate of hind paw licking (%) (male CD-1 (Crl.) mice [9]; 25-30 minutes after formalin injection): 0%
C=C(C)C1CC[C@@]2(C)Oc3c(CC=C(C)C)c4c(c(O)c3[C@@H]1C2O)C(=O)C1=C[C@@H]2CC3C(C)(C)OC(C/C=C(/C)C(=O)O)(C2=O)[C@@]13O4 (stereo partly drawn) [Gh-1050, 3α-hydroxygambogellic acid]	3.4 (≈ 5.27 µM)	0.14 (≈ 0.217 µM)	1 (≈ 1.55 µM)	4.8 (≈ 7.44 µM)	7.7 (≈ 11.9 µM)	1.1 (≈ 1.71 µM)	3.8 (≈ 5.89 µM)	0.21 (≈ 0.326 µM)	2.3 (≈ 3.57 µM)	0.13 (≈ 0.202 µM)	0.74 (≈ 1.15 µM)	0.17 (≈ 0.264 µM)	7 (≈ 10.9 µM)	0.78 (≈ 1.21 µM)	
CC(C)=CCC[C@@]1(C)C=Cc2c(O)c3c(c(CC(O)C(C)(C)O)c2O1)O[C@]12C(=C[C@@H]4CC1C(C)(C)OC2(C/C=C(/C)C(=O)O)C4=O)C3=O (stereo partly shown) [Gh-1036, epiformoxanthone F]	4.8 (≈ 7.24 µM)		3.8 (≈ 5.73 µM)		12 (≈ 18.1 µM)		8.6 (≈ 13 µM)		0.81 (≈ 1.22 µM)		0.52 (≈ 0.785 µM)		3.1 (≈ 4.68 µM)		
CC(C)=CCC[C@@]1(C)C=Cc2c(O)c3c(c(CC4OC4(C)C)c2O1)O[C@]12C(=C[C@@H]4CC1C(C)(C)OC2(C/C=C(/C)C(=O)O)C4=O)C3=O (stereo partly shown) [Gh-3351, epiformoxanthone E]	3.3 (≈ 5.12 µM)	0.99 (≈ 1.54 µM)	3.8 (≈ 5.89 µM)	1.9 (≈ 2.95 µM)	72.6 (≈ 113 µM)	2.9 (≈ 4.5 µM)	31.2 (≈ 48.4 µM)	0.24 (≈ 0.372 µM)	0.62 (≈ 0.962 µM)	0.77 (≈ 1.19 µM)	3.4 (≈ 5.27 µM)	11.7 (≈ 18.1 µM)	22.1 (≈ 34.3 µM)	0.11 (≈ 0.171 µM)	
CC(C)=CCc1c2c(c(O)c3c1O[C@]14C(=C[C@@H]5CC1C(C)(C)OC4(C/C=C(/C)C(=O)O)C5=O)C3=O)C=C[C@](C)(CCC(O)C(C)(C)O)O2 (stereo partly shown) [Gh-3271, epiformoxanthone J]	1.5 (≈ 2.26 µM)		0.62 (≈ 0.935 µM)		5.8 (≈ 8.75 µM)		4.6 (≈ 6.94 µM)		0.35 (≈ 0.528 µM)		0.51 (≈ 0.769 µM)		17.1 (≈ 25.8 µM)		
CC(C)=CCC[C@]1(C)C=Cc2c(O)c3c(c(CC4OC4(C)C)c2O1)O[C@]12C(=C[C@@H]4CC1C(C)(C)OC2(C/C=C(/C)C(=O)O)C4=O)C3=O (stereo partly shown) [Gh-3352, formoxanthone E]	0.85 (≈ 1.32 µM)	0.075 (≈ 0.116 µM)	1.8 (≈ 2.79 µM)	0.18 (≈ 0.279 µM)	0.68 (≈ 1.05 µM)	0.16 (≈ 0.248 µM)	2 (≈ 3.1 µM)	0.11 (≈ 0.171 µM)	0.26 (≈ 0.403 µM)	0.18 (≈ 0.279 µM)	0.99 (≈ 1.54 µM)	0.26 (≈ 0.403 µM)	0.93 (≈ 1.44 µM)	0.084 (≈ 0.13 µM)	
CC(C)=CCC[C@@]1(C)C=Cc2c(O)c3c(c(C(O)C4OC4(C)C)c2O1)O[C@]12C(=C[C@@H]4CC1C(C)(C)OC2(C/C=C(/C)C(=O)O)C4=O)C3=O (stereo partly shown) [Gh-3311, epiformoxanthone G]	13.9 (≈ 21 µM)	8 (≈ 12.1 µM)	14 (≈ 21.2 µM)	7.9 (≈ 12 µM)	38 (≈ 57.5 µM)	7.9 (≈ 12 µM)	25.6 (≈ 38.7 µM)	1.9 (≈ 2.88 µM)	5.4 (≈ 8.17 µM)	5 (≈ 7.57 µM)	21.2 (≈ 32.1 µM)	1.4 (≈ 2.12 µM)	2.2 (≈ 3.33 µM)	4 (≈ 6.05 µM)	
